In ChEMBL document CHEMBL1152763, “Synthesis, cytotoxic activity, and DNA binding properties of antitumor cis-1,2-dihydroxy-1,2-dihydrobenzo[b]acronycine cinnamoyl esters” (Bioorg Med Chem, 2009):
The source made the active and inactive calls. No cut-off for these calls is given here.

Key:
[1] = Binding affinity to pBS plasmid 117 base-pair DNA fragment assessed as half life of DNA alkylation by gel shift assay
L1210 = assay: Cytotoxicity against mouse L1210 cells after 48 hrs by microculture tetrazolium assay; type: functional, cell-based
[2] = (§1) Cytotoxicity against human KB-3-1 cells after 96 hrs by microculture tetrazolium assay; type: functional, cell-based; conditions: KB 3-1, 96 h
KB 3-1 = assay: as §1; type: functional, cell-based
MC-38 [3] = assay: Antitumor activity against mouse Colon 38 cells xenografted B6D2F1 mouse assessed as inhibition of tumor growth at 4 mg/kg, iv administered twice daily; type: functional
MC-38 [4] = assay: Toxicity in mouse Colon 38 cells xenografted B6D2F1 mouse assessed as inhibition of tumor growth at 4 mg/kg, iv administered twice daily; type: functional, organism-based; parameters: dose 4 mg/kg
MC-38 [5] = assay: Antitumor activity against mouse Colon 38 cells xenografted B6D2F1 mouse assessed as inhibition of tumor growth at 2 mg/kg, iv administered twice daily; type: functional
MC-38 [6] = assay: Antitumor activity against mouse Colon 38 cells xenografted B6D2F1 mouse assessed as tumor free state at 4 mg/kg, iv administered twice daily on day 90 post drug dose; type: functional, organism-based; parameters: dose 4 mg/kg
[7] = Mus musculus, L1210, 48 h, read-out: IC50

Compound	T1/2 [1]	IC50 (L1210; [7])	IC50 [2]	other results
COc1cc2c(c3c1c(=O)c1cc4ccccc4cc1n3C)[C@@H](O)[C@@H](OC(=O)/C=C/c1ccccc1)C(C)(C)O2 (racemic)	0.333 h	0.12 µM	0.03 µM	–
COc1cc2c(c3c1c(=O)c1cc4ccccc4cc1n3C)[C@@H](O)[C@@H](OC(=O)/C=C/c1ccc([N+](=O)[O-])cc1)C(C)(C)O2 (racemic)	–	0.24 µM	0.03 µM	–
COc1ccc(/C=C/C(=O)O[C@@H]2[C@H](OC(C)=O)c3c(cc(OC)c4c(=O)c5cc6ccccc6cc5n(C)c34)OC2(C)C)cc1OC (racemic)	–	0.9 µM	0.15 µM	–
COc1cc2c(c3c1c(=O)c1cc4ccccc4cc1n3C)[C@@H](O)[C@@H](OC(=O)/C=C/c1ccc(Cl)cc1)C(C)(C)O2 (racemic)	1 h	0.04 µM	0.008 µM	–
COc1cc2c(c3c1c(=O)c1cc4ccccc4cc1n3C)[C@@H](OC(C)=O)[C@@H](OC(=O)/C=C/c1ccc([N+](=O)[O-])cc1)C(C)(C)O2 (racemic)	–	0.5 µM	0.14 µM	–
COc1cc2c(c3c1c(=O)c1cc4ccccc4cc1n3C)[C@@H](OC(C)=O)[C@@H](OC(=O)/C=C/c1cccc(Cl)c1)C(C)(C)O2 (racemic)	–	–	–	IC50 (L1210; l1210): Insoluble; solubility (KB 3-1): Not soluble
COc1cc2c(c3c1c(=O)c1cc4ccccc4cc1n3C)[C@@H](OC(C)=O)[C@@H](OC(=O)/C=C/c1ccccc1)C(C)(C)O2 (racemic)	1.5 h	1.1 µM	0.15 µM	–
COc1cc2c(c3c1c(=O)c1cc4ccccc4cc1n3C)[C@@H](OC(C)=O)[C@@H](OC(=O)/C=C/c1ccc(Br)cc1)C(C)(C)O2 (racemic)	6 h	0.7 µM	0.08 µM	–
COc1cc2c(c3c1c(=O)c1cc4ccccc4cc1n3C)[C@@H](O)[C@@H](OC(=O)/C=C/c1ccccc1Cl)C(C)(C)O2 (racemic)	–	0.05 µM	0.02 µM	–
COc1cc2c(c3c1c(=O)c1cc4ccccc4cc1n3C)[C@@H](OC(C)=O)[C@@H](OC(=O)/C=C/c1cccc(Br)c1)C(C)(C)O2 (racemic)	–	0.6 µM	0.12 µM	–
COc1cc2c(c3c1c(=O)c1cc4ccccc4cc1n3C)[C@@H](OC(C)=O)[C@@H](OC(=O)/C=C/c1ccc(Cl)cc1Cl)C(C)(C)O2 (racemic)	–	0.6 µM	0.09 µM	–
COc1cc2c(c3c1c(=O)c1cc4ccccc4cc1n3C)[C@@H](OC(C)=O)[C@@H](OC(=O)/C=C/c1ccc(Cl)cc1)C(C)(C)O2 (racemic)	6 h	0.5 µM	0.07 µM	–
COc1cc2c(c3c1c(=O)c1cc4ccccc4cc1n3C)[C@@H](OC(C)=O)[C@@H](OC(=O)/C=C/c1ccc(C(F)(F)F)cc1)C(C)(C)O2 (racemic)	–	1.5 µM	0.3 µM	–
COc1cc2c(c3c1c(=O)c1cc4ccccc4cc1n3C)[C@@H](OC(C)=O)[C@@H](OC(=O)/C=C/c1ccc(Cl)c(Cl)c1)C(C)(C)O2 (racemic)	> 24 h	0.4 µM	0.05 µM	inhibition in vivo at 4 mg/kg (MC-38 [3]): 84%
COc1cc2c(c3c1c(=O)c1cc4ccccc4cc1n3C)[C@@H](O)[C@@H](OC(=O)/C=C/c1cccc(Br)c1)C(C)(C)O2 (racemic)	–	0.08 µM	0.02 µM	–
COc1cc2c(c3c1c(=O)c1cc4ccccc4cc1n3C)[C@@H](O)[C@@H](OC(=O)/C=C/c1cccc(Cl)c1)C(C)(C)O2 (racemic)	–	0.06 µM	0.02 µM	–
COc1ccc(/C=C/C(=O)O[C@@H]2[C@H](O)c3c(cc(OC)c4c(=O)c5cc6ccccc6cc5n(C)c34)OC2(C)C)cc1 (racemic)	–	0.13 µM	0.03 µM	–
COc1cc2c(c3c1c(=O)c1cc4ccccc4cc1n3C)[C@@H](OC(C)=O)[C@@H](OC(=O)/C=C/c1ccccc1Cl)C(C)(C)O2 (racemic)	–	0.6 µM	0.09 µM	–
COc1cc2c(c3c1c(=O)c1cc4ccccc4cc1n3C)[C@@H](O)[C@@H](OC(=O)/C=C/c1ccc(Cl)c(Cl)c1)C(C)(C)O2 (racemic)	1 h	0.035 µM	0.006 µM	Activity (MC-38 [4]): Toxic; inhibition in vivo at 2 mg/kg (MC-38 [5]): 90%
COc1cc2c(c3c1c(=O)c1cc4ccccc4cc1n3C)[C@@H](O)[C@@H](OC(=O)/C=C/c1ccc(Br)cc1)C(C)(C)O2 (racemic)	1 h	0.05 µM	0.006 µM	–
COc1cc2c(c3c1c(=O)c1cc4ccccc4cc1n3C)[C@@H](OC(C)=O)[C@@H](OC(=O)/C=C/c1cccc(C(F)(F)F)c1)C(C)(C)O2 (racemic)	–	0.7 µM	0.06 µM	–
COc1cc2c(c3c1c(=O)c1cc4ccccc4cc1n3C)[C@@H](O)[C@@H](OC(=O)/C=C/c1cccc(C(F)(F)F)c1)C(C)(C)O2 (racemic)	–	0.1 µM	0.015 µM	–
COc1cc2c(c3c1c(=O)c1cc4ccccc4cc1n3C)[C@@H](O)[C@@H](OC(=O)/C=C/c1ccc(Cl)cc1Cl)C(C)(C)O2 (racemic)	–	0.035 µM	0.006 µM	–
COc1cc2c(c3c1c(=O)c1cc4ccccc4cc1n3C)[C@@H](OC(C)=O)[C@@H](OC(C)=O)C(C)(C)O2 (racemic)	0.5 h	0.79 µM	0.1 µM	inhibition in vivo at 4 mg/kg (MC-38 [3]): 99%; Activity (MC-38 [6]): Active
COc1cc2c(c3c1c(=O)c1cc4ccccc4cc1n3C)[C@@H](O)[C@@H](OC(C)=O)C(C)(C)O2 (racemic)	0.0833 h	0.62 µM	0.16 µM	–
COc1ccc(/C=C/C(=O)O[C@@H]2[C@H](OC(C)=O)c3c(cc(OC)c4c(=O)c5cc6ccccc6cc5n(C)c34)OC2(C)C)cc1 (racemic)	–	1.2 µM	0.24 µM	–
COc1ccc(/C=C/C(=O)O[C@@H]2[C@H](O)c3c(cc(OC)c4c(=O)c5cc6ccccc6cc5n(C)c34)OC2(C)C)cc1OC (racemic)	–	1.1 µM	0.08 µM	–
COc1cc2c(c3c1c(=O)c1cc4ccccc4cc1n3C)[C@@H](O)[C@@H](OC(=O)/C=C/c1ccc(C(F)(F)F)cc1)C(C)(C)O2 (racemic)	–	0.09 µM	0.02 µM	–
